From patent US5668161A, “Substituted thiazoles for the treatment of inflammation” (G.D. Searle & Co., priority 1996, dated 1997)
pIC50: −log10 of the molar value.

Experiments:
murine COX-II = biological target: T1, murine COX-II (Mus musculus, UniProt Q05769); test: biochemical
T1 sequence (Q05769 18-604): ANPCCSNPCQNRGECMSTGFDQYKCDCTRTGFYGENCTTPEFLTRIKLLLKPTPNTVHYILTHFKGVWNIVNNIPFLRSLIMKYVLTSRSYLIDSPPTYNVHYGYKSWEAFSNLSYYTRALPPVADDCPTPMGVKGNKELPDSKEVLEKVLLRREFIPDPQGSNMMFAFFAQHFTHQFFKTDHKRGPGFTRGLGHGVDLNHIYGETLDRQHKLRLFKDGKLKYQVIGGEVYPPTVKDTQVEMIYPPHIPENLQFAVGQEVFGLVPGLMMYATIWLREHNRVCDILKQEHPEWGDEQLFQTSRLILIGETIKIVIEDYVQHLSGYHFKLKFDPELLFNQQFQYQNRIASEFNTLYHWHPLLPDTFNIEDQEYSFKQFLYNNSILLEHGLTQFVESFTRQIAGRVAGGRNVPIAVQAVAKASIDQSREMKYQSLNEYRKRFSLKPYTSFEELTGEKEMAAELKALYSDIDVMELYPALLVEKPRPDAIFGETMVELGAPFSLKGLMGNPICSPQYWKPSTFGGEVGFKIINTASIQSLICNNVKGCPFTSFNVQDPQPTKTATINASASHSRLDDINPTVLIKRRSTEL

carrageenan foot edema = test: Rat Carrageenan Foot Pad Edema Test; assay type: in vivo, rat (Male Sprague-Dawley); conditions: oral, 3 hours after carrageenan, read-out: RAT PAW EDEMA % Inhibition; for inhibition at 20 mg/kg: @ 20 mg/kg body weight
Description: Male Sprague-Dawley rats were selected in each group so that the average body weight was as close as possible. Rats were fasted with free access to water for over sixteen hours prior to the test. […] One hour later a subplantar injection of 0.1 mL of 1% solution of carrageenan/sterile 0.9% saline was administered and the volume of the injected foot was measured with a displacement plethysmometer connected to a pressure transducer with a digital indicator. Three hours after the injection of the carrageenan, the volume of the foot was again measured. […] Rat Carrageenan-induced Analgesia Test

murine COX-I = biological target: T2, murine COX-I (Mus musculus, UniProt P22437); test: COX I activity in vitro, murine (PGE2 by ELISA)
T2 sequence (P22437 27-602): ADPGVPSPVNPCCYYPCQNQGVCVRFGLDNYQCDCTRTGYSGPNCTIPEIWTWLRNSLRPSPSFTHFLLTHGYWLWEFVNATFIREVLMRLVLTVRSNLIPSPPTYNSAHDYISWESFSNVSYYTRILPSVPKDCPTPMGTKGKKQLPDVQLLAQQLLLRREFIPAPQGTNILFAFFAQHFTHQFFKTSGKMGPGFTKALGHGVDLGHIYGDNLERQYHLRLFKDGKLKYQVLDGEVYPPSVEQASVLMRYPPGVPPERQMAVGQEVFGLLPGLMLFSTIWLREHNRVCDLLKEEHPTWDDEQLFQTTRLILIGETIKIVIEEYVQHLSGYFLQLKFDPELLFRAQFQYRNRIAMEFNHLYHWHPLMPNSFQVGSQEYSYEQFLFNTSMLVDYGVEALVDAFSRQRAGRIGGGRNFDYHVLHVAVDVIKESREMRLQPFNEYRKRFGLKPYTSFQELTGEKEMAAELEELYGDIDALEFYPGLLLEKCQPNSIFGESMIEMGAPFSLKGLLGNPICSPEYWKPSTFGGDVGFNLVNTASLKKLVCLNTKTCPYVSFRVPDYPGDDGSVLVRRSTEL

Row | Structure (SMILES) | pIC50 (murine COX-II) | pIC50 (murine COX-I) | inhibition at 20 mg/kg (carrageenan foot edema) | inhibition at 10 mg/kg (carrageenan foot edema)
1 | CS(=O)(=O)c1ccc(-c2sc(-c3ccncc3)nc2-c2ccc(F)cc2)cc1 [Example 8, 4-(4-Fluorophenyl)-5-(4-methylsulfonylphenyl)-2-(4-pyridyl)thiazole] | 6.70 | < 4.00 | 12% | 
2 | CS(=O)(=O)c1ccc(-c2sc(CS(=O)(=O)c3cccs3)nc2-c2ccc(F)cc2)cc1 [Example 13] | 5.92 | < 4.52 |  | 
3 | CCOC(=O)c1nc(-c2ccc(F)cc2)c(-c2ccc(S(C)(=O)=O)cc2)s1 [Example 17, Ethyl [4-(4-fluorophenyl)-5-(4-methylsulfonylphenyl)-2-thiazolyl]carboxylate] | 6.52 | < 5.00 |  | 
4 | Cc1nc(-c2ccc(S(C)(=O)=O)cc2)c(-c2ccc(F)cc2)s1 [Example 20, 5-(4-Fluorophenyl)-4-(4-methylsulfonylphenyl)-2-methylthiazole] | 7.00 | < 5.00 | 48% | 
5 | CS(=O)(=O)c1ccc(-c2scnc2-c2ccc(F)cc2)cc1 [Example 22, 4-(4-Fluorophenyl)-5-(4-methylsulfonylphenyl)thiazole] | 4.95 | < 4.00 |  | 
6 | CS(=O)(=O)c1ccc(-c2sc(-c3cccs3)nc2-c2ccc(F)cc2)cc1 [Example 24, 4-(4-Fluorophenyl)-5-(4-methylsulfonylphenyl)-2-(2-thienyl)thiazole] | > 7.00 | < 5.00 |  | 20%
7 | CS(=O)(=O)c1ccc(-c2sc(-c3cccnc3)nc2-c2ccc(F)cc2)cc1 [Example 26, 4-(4-Fluorophenyl)-5-(4-methylsulfonylphenyl)-2-(3-pyridyl)thiazole] |  | < 4.00 |  | 
8 | CS(=O)(=O)c1ccc(-c2sc(CC#N)nc2-c2ccc(F)cc2)cc1 [Example 27, 2-(Cyanomethyl)-4-(4-fluorophenyl)-5-(4-methylsulfonylphenyl)thiazole] | 6.70 | < 5.00 |  | 
9 | Cc1nc(-c2ccc(F)cc2)c(-c2ccc(S(C)(=O)=O)cc2)s1 [Example 28, 4-(4-Fluorophenyl)-5-(4-methylsulfonylphenyl)-2-methylthiazole] | > 7.00 | < 5.00 |  | 
10 | CCCNc1nc(-c2ccc(F)cc2)c(-c2ccc(S(C)(=O)=O)cc2)s1 [Example 31, 4-(4-Fluorophenyl)-5-(4-methylsulfonylphenyl)-2-(1-propylamino)thiazole] | 7.00 | < 5.00 |  | 27.5%
11 | CS(=O)(=O)c1ccc(-c2sc(-c3ccccc3Cl)nc2-c2ccccc2F)cc1 [Example 35, 2-(2-Chlorophenyl)-4-(2-fluorophenyl)-5-(4-methylsulfonylphenyl)thiazole] |  | < 4.00 | 16% | 
12 | CS(=O)(=O)c1ccc(-c2sc(COc3cccc(Cl)c3)nc2-c2ccc(F)cc2)cc1 [Example 37, 2-((3-Chlorophenoxy)methyl)-4-(4-fluorophenyl)-5-(4-methylsulfonylphenyl)thiazole] | > 7.00 | < 4.00 | 9% | 
13 | Cc1nc(-c2nc(-c3ccc(F)cc3)c(-c3ccc(S(C)(=O)=O)cc3)s2)cs1 [Example 39, 4-(4-Fluorophenyl)-5-[4-(methylsulfonyl)phenyl]-2-(2-methyl-4-thiazolyl)thiazole] | 6.52 | < 5.00 | 19% | 
14 | CS(=O)(=O)c1ccc(-c2sc(-c3ccccc3)nc2-c2ccc(F)cc2)cc1 [Example 45, 4-(4-Fluorophenyl)-5-(4-methylsulfonylphenyl)-2-phenylthiazole] | > 7.00 | < 4.00 |  | 19%
15 | CCCCCCNc1nc(-c2ccc(F)cc2)c(-c2ccc(S(C)(=O)=O)cc2)s1 [Example 46, 4-(4-Fluorophenyl)-2-n-hexylamino-5-(4-methylsulfonylphenyl)thiazole] | > 7.00 | 5.85 |  | 25%
16 | CNc1nc(-c2ccc(F)cc2)c(-c2ccc(S(C)(=O)=O)cc2)s1 [Example 48, 4-(4-Fluorophenyl)-5-(4-methylsulfonylphenyl)-2-methylaminothiazole] | 6.52 | < 5.00 |  | 15%
17 | COc1ccc(-c2nc(-c3ccc(F)cc3)c(-c3ccc(S(C)(=O)=O)cc3)s2)cc1 [Example 49, 4-(4-Fluorophenyl)-5-(4-methylsulfonylphenyl)-2-(4-methoxyphenyl)thiazole] | 6.52 | < 5.00 |  | 6%
18 | CCNc1nc(-c2ccc(F)cc2)c(-c2ccc(S(C)(=O)=O)cc2)s1 [Example 50, 2-Ethylamino-4-(4-fluorophenyl)-5-(4-methylsulfonylphenyl)-thiazole] | 6.52 | < 5.00 |  | 11%
19 | CCOC(=O)c1ccc(Nc2nc(-c3ccc(F)cc3)c(-c3ccc(S(C)(=O)=O)cc3)s2)cc1 [Example 55, Ethyl [4-[4-(4-fluorophenyl)-5-(4-methylsulfonylphenyl)-2-thiazolyl]amino]benzoate] | 5.46 | < 5.00 |  | 

Further lines, with some results ahead:

Row | pIC50 (murine COX-II) | pIC50 (murine COX-I) | Structure (SMILES) | inhibition at 20 mg/kg (carrageenan foot edema) | inhibition at 10 mg/kg (carrageenan foot edema)
20 | 6.82 | 5.27 | CC(C)(C)c1nc(-c2ccc(F)cc2)c(-c2ccc(S(C)(=O)=O)cc2)s1 [Example 18, 2-(tert-Butyl)-4-(4-fluorophenyl)-5-(4-methylsulfonylphenyl)thiazole] |  | 
21 |  | 6.40 | CS(=O)(=O)c1ccc(-c2sc(Cc3ccccc3)nc2-c2ccc(F)cc2)cc1 [Example 19, 2-Benzyl-4-(4-fluorophenyl)-5-(4-methylsulfonylphenyl)thiazole] |  | 
22 | 6.52 | 6.05 | CS(=O)(=O)c1ccc(-c2sc(N3CCCCC3)nc2-c2ccc(F)cc2)cc1 [Example 30, 4-(4-Fluorophenyl)-5-(4-methylsulfonylphenyl)-2-(1-piperidinyl)thiazole] |  | 
23 | > 7.00 | 5.72 | CCc1nc(-c2ccc(F)cc2)c(-c2ccc(S(C)(=O)=O)cc2)s1 [Example 42, 2-Ethyl-4-(4-fluorophenyl)-5-(4-methylsulfonylphenyl)thiazole] |  | 
24 | 5.89 | 4.00 | CS(=O)(=O)c1ccc(-c2sc(CCCc3ccccc3)nc2-c2ccc(F)cc2)cc1 [Example 43, 4-(4-Fluorophenyl)-5-(4-methylsulfonylphenyl)-2-(3-phenylpropyl)thiazole] |  | 
25 |  | 5.77 | CS(=O)(=O)c1ccc(-c2sc(CCc3ccccc3)nc2-c2ccc(F)cc2)cc1 [Example 44, 4-(4-Fluorophenyl)-5-(4-methylsulfonylphenyl)-2-(2-phenylethyl)thiazole] |  | 
26 | > 7.00 | 5.85 | CCCCNc1nc(-c2ccc(F)cc2)c(-c2ccc(S(C)(=O)=O)cc2)s1 [Example 47, 2-Butylamino-4-(4-fluorophenyl)-5-(4-methylsulfonylphenyl)thiazole] | 12% | 
27 | 6.52 | 4.92 | CC(C)(C)Nc1nc(-c2ccc(F)cc2)c(-c2ccc(S(C)(=O)=O)cc2)s1 [Example 51, 2-tert-Butylamino-4-(4-fluorophenyl)-5-(4-methylsulfonylphenyl)thiazole] |  | 14%
28 | 6.05 | 6.70 | CS(=O)(=O)c1ccc(-c2sc(Nc3ccc(C#N)cc3)nc2-c2ccc(F)cc2)cc1 [Example 53, 2-(4-Cyanophenylamino)-4-(4-fluorophenyl)-5-(4-methylsulfonylphenyl)-thiazole] |  | 
29 | 5.89 | 5.96 | CCOC(=O)c1cccc(Nc2nc(-c3ccc(F)cc3)c(-c3ccc(S(C)(=O)=O)cc3)s2)c1 [Example 54, Ethyl-[3-[4-(4-fluorophenyl)-5-(4-methylsulfonylphenyl)-2-thiazolyl]amino]benzoate] |  | 
